Key:
5×FAD mice = assay: Intracerebroventricular Alzet pump infusion in 5×FAD and wild type mice: Bdnf, LTP, Y-maze, Morris water maze; assay type: in vivo, mouse
Excerpt: All animal procedures were approved by the Weill Cornell Medicine Institutional Animal Care and Use Committee (Animal protocol: 2014-0029) and conducted in accordance with the NIH Guide for the Care and Use of Laboratory Animals and ARRIVE guidelines. We used C57/BL6 mice for the induction of ischemic stroke and hemorrhagic stroke. 8-10 weeks old female pregnant CD1 mice were used for primary neuronal culture. Ppp1R15b^flox/flox mice were obtained from Ann-Hwee Lee's group currently working at Regeneron and were bred at Burke Neurological Institute. The genotypes of Ppp1R15b^flox/flox mice were assessed with PCR using DNA isolated from clipped tails of mice. Twelve weeks old male Ppp1R15b^flox/flox mice were used for inactivation of R15b regulatory subunit of protein phosphatase 1 in the hippocampus through AAV8 GFP or Cre intracranial injection. In the current study, 5×FAD mouse was used as a model of AD as this model represents pathological characteristics seen in both genetic as well as sporadic forms of AD. 5×FAD mice (B6/SJL genetic background) was purchased from Jackson's laboratory and was maintained by breeding male heterozygous transgenic mice with wild type female mice. The 5×FAD mice express human APP and PSEN1 transgenes with a total of five AD-linked mutations: the Swedish (K670N/M671L), Florida (I716V), and London (V717I) mutations in APP, and the M146L and L286V mutations in PSEN1. In the current study, 6-7 months old 5×FAD mice were used for the Alzet mini osmotic pump implantation followed by memory assessment, LTP assessment, and gene expression studies.
Brains were quickly removed from mice sacrificed by cervical dislocation and placed in cold artificial cerebrospinal fluid (ACSF) (bubbled with 95% O2/5% CO2) containing (in mM): 124 NaCl, 4 KCl, 1 Na2HPO4, 25 NaHCO3, 2 CaCl2, 2 MgCl2, and 10 glucose. The pH and osmolarity of the solution were 7.4 and 310 mOsm/L, respectively. The hippocampus was isolated and placed on a mechanical tissue chopper to produce transverse hippocampal slices of 400 μm thickness. Slices were maintained in a humidified interface chamber at 29° C. and continuously perfused (˜1 mL/min) with 95% O2/5% CO2-bubbled ACSF. Hippocampal slices were allowed to recover for at least 90 min prior to beginning the experiment. For recordings, glass electrodes were filled with ACSF and positioned in the CA1 stratum radiatum to record fEPSPs evoked by local stimulation (0.1 ms) of Schaffer collateral fibers using a bipolar concentric electrode placed laterally to the recording electrode (˜150 μm). For LTP recordings, the voltage intensity of the stimulation test pulse (square pulse, 100 us duration) for each slice was determined to be the voltage intensity that had generated 30-40% of the maximum slope obtained using input-output relationships. Facilitation was calculated as the ratio of the slopes of the second and first fEPSPs, and plotted as a function of the inter-pulse duration. For LTP, a test pulse was applied every minute. Following a steady baseline of 15 min, potentiation was induced with either 100 Hz for 1 s (weak stimulation) or 3 theta-burst stimulations (TBS; 15 s interval), each one involving a single train of 10 bursts at 5 Hz, where each burst is composed of 4 pulses at 100 Hz (strong stimulation). The fEPSP slopes following tetanic stimulation were normalized to the average of the slopes of the fEPSPs acquired during the baseline. Residual potentiation was calculated as the average of the last 15 min of 2 h of recordings.
The sterile Alzet mini osmotic pumps (Durect, pump model 1004) were filled with 100 μl of either saline or 2-deoxyglucose (10 μg/μl) and were incubated in saline for 24 h to allow the osmotic release of the drug. Thereafter, the pumps were attached properly with the plastic tubing provided in the brain infusion kit 2 3-5 mm (Durect, catalog number 0008663). We made an intracerebroventricular groove stereotaxically in the mouse brain. […]

AMP/ATP ratio = AMP/ATP ratio from metabolic profiling of mouse primary neurons; assay type: cell-based; conditions: 10 mM, 8 h
Method: Targeted Metabolite profiling was performed according to a method described in a previous publication (Chen et al., 2016). Polar metabolites were extracted using cold 80% methanol. The extracts were dried completely with a Speedvac and redissolved in water before it was applied to the hydrophilic interaction chromatography LC-MS. The sample injection order was randomized. Metabolites were measured on a Q Exactive Orbitrap mass spectrometer (Thermo Scientific), which was coupled to a Vanquish UPLC system (Thermo Scientific) via an Ion Max ion source with a HESI II probe (Thermo Scientific). A Sequant ZIC-[…] column (2.1 mm i.d.×150 mm, particle size of 5 μm, Millipore Sigma) was used for separation of metabolites. A 2.1×20 mm guard column with the same packing material was used for protection of the analytical column. Flow rate was set at […]. […] The MS data was processed using XCalibur 4.1 (Thermo Scientific) to extract the metabolite signal intensity for relative quantitation. […] In pathway enrichment analysis, a single P value is calculated for each metabolic pathway. Pathway topology analysis measured the significance of a given experimentally identified metabolite in a pre-defined metabolic pathway.

ATF4 = assay: In vivo bioluminescence imaging of 5′UTR ATF4 luciferase reporter in mouse brain; conditions: 10 mg/Kg intraperitoneally for 4 h
HEK293 cell line = conditions: cited from earlier work
[1] = ICV Alzet pump, four weeks, wild type mice
[2] = ICV Alzet pump, four weeks, versus wild type mice treated with saline

In the case of OC[C@H]1OC(O)C[C@@H](O)[C@@H]1O (stereo partly drawn) [2-DG, (4R,5S,6R)-6-(hydroxymethyl)oxane-2,4,5-triol], the “Bdnf gene expression in wild type mice” value (5×FAD mice; [1]) is reported as “didn't lead to nootropic upregulation”, the “LTP in wild type mice” value (5×FAD mice; [1]) is reported as “didn't lead to nootropic upregulation” and the “Morris water maze task in wild type mice” value (5×FAD mice; [1]) is reported as “did not show any nootropic increase”. For the same compound, the “Y-maze task in wild type mice” value (5×FAD mice; [1]) was “did not show any nootropic increase”, the “LTP in hippocampal slices from 5×FAD mice” value (5×FAD mice; ICV Alzet pump, four weeks, 5×FAD (saline) vs 5×FAD (2-DG) p=0.0194) was “normalized” and the “Bdnf gene expression in 5×FAD mice” value (5×FAD mice; [2]) was “normalized”. The “spatial long-term memory in Morris water maze, 5×FAD mice” value (5×FAD mice; [2]) was “normalized these memories”, the “spatial short-term memory, spontaneous alternation test in Y-maze, 5×FAD mice” value (5×FAD mice; [2]) was “normalized these memories” and the “driving the adaptive plasticity program” value (5×FAD mice; intracerebroventricular infusion at 1 g/Kg/day) was “sufficient in driving the adaptive plasticity program”. For the same compound, the AMP-ATP ratio (AMP/ATP ratio) was “increase”, the “ATF4 translation in the mouse brain (luciferase activity)” value (ATF4) was “significant increase” and the Bdnf gene expression (HEK293 cell line) was “inhibit the Bdnf gene expression”.
